Test results: patent US20230331675A1, “AROMATIC ETHYLENE COMPOUND AND PREPARATION METHOD THEREFOR, AND INTERMEDIATE, PHARMACEUTICAL COMPOSITION, AND APPLICATION THEREOF” (GUANGZHOU MAXINOVEL PHARMACEUTICALS CO., LTD., priority 2020, published 2023)

What was measured:
[1] = Pharmacokinetic experiment in mice; assay type: in vivo; conditions: CD1 male mice, intravenous 2 mg/kg; for F: oral 10 mg/kg by gavage; for AUC(0-inf) / Cmax: mouse, plasma, oral 10 mg/kg by gavage (route of value not stated)
Text: Effect embodiment 2: Pharmacokinetic experiment in mice
Reagents: Acetonitrile, formic acid, methanol (HPLC grade) were purchased from Sigma-Aldrich (USA.), and pure water was purchased from Hangzhou Wahaha Group Co., Ltd. (Hangzhou, China). Other chemical reagents were all analytically pure reagents.
Experimental instruments: liquid chromatograph mass spectrometer (UPLC-MS/MS, composed of AB SCIEX TRIPLE QUAD 6500 triple quadrupole mass spectrometer, Shimadzu high performance liquid phase system. The Analyst 1.6.2 data acquisition and processing system was adopted).
Experimental animals: 6 CD1 male mice, 29-30 g before administration, were purchased from Shanghai Jihui Experimental Animal Breeding Co., Ltd., and the animal certificate number is SCXK(SH) 2017-0012 20170012001403. Before the experiment, the animals should be kept for at least 3 days to adapt to the environment. Throughout the experiment, the animals had free access to food and water.
1) Preparation of a mother liquor: A certain amount of the test drug was weighed in a clean sample bottle, then dimethyl sulfoxide was added, vortexed thoroughly for 1 min, and sonicated for 5 min to give a 4 mg/mL solution.
Drug preparation for intravenous administration: A certain amount of the above solution was taken and placed in a clean sample bottle, then polyethylene glycol-15 hydroxystearate was added, vortexed thoroughly for 1 min, then normal saline was added, and the mixture was continued vortexing for 1 min to give […] solution A.
Drug preparation for oral administration: A certain amount of the test drug was weighed and placed in a clean sample bottle, then a pre-prepared vehicle “10% (w/v) polyoxyethylene 40 hydrogenated castor+20% (w/v) sulfobutyl ether β-cyclodextrin+70% water” was added, vortexed thoroughly for 1 min, magnetically stirred for 20-25 min, and sonicated for 10 min to give 1 mg/mL solution B.
2) Intravenous administration: 3 mice were injected with 2 mg/kg (5 mL/kg) solution A through the tail vein.
Oral administration: 3 mice were given 10 mg/kg (10 mL/kg) solution B by gavage.
3) Collection and storage of plasma samples: Blood samples were collected from the orbital venous plexus of mice according to predetermined time points (5 minutes, 15 minutes, 30 minutes, 1 hour, 2 hours, 4 hours, 8 hours and 24 hours). 25 μL of blood was placed in EDTA-K2 anticoagulant tubes (placed on wet ice), and 20 μL of blood was immediately diluted with 60 μL of water and vortexed until evenly mixed. Plasma was stored in a −70° C. refrigerator for long-term storage until sample analysis.
4) Analysis of plasma samples: 200 μL of acetonitrile (containing 100 ng/mL internal standard) was added to 25 μL of plasma sample, vortexed for 10 minutes, and centrifuged at 5800 rpm for 10 minutes. 70 μL of supernatant was transferred to a 96-well injection plate. 1 μL of plasma sample was analyzed by LC-MS/MS.
5) The pharmacokinetic parameters were calculated according to the test results.

PD-1/PD-L1 = PD-1/PD-L1 (Homo sapiens (Human), UniProt Q9NZQ7); experiment: Homogeneous time-resolved fluorescence (HTRF) binding assay; conditions: CisBio kit, read-out: IC50 of compounds binding to PD-1/PD-L1
PD-1/PD-L1, sequence (Q9NZQ7 19-238): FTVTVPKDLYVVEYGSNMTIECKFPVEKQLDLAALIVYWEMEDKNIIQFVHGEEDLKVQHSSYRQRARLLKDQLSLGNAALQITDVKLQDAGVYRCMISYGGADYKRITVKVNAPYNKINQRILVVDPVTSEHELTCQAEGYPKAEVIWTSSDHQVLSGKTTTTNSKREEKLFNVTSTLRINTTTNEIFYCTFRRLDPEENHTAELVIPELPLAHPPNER
Text: Effect embodiment 1: Homogenouse time-resolved fluorescence
Homogeneous time-resolved fluorescence (HTRF) binding assay was used to determine the binding ability of the compound of the present disclosure to PD-1/PD-L1.
The purchased kit (CisBio, #64CUS000C-1) contained reagents required for assays such as PD-1, PD-L1, anti-tag1-Eu, Anti-tag2-XL665, dilute buffer, and detection buffer.
1. The compound was formulated to 10 concentrations with a 3-fold gradient with 100% DMSO.
2. The DMSO solution of the compound was added to the dilute buffer, mixed thoroughly, then transferred to a 96-well plate.
3. PD-L1 was diluted with dilute buffer, then added to the above 96-well plate.
4. PD-1 was diluted with dilute buffer and added to the above 96-well plate, which was then incubated at room temperature for 30 minutes.
5. A portion of anti-tag1-Eu and a portion of anti-tag2-XL665 were added to the detection buffer, mixed thoroughly and transferred to the above 96-well plate.
6. The mixture in the above 96-well plate was incubated at room temperature for 1 to 24 hours.
7. HTRF values were read with Envision.

| F [1] | AUC(0-inf) [1] | Cmax [1] | IC50 (PD-1/PD-L1) | Compound |
| --- | --- | --- | --- | --- |
| 80.6% | 16800 ng·h/mL | 2130 ng/mL | – | Cc1cc(/C=C/c2cccc(-c3ccccc3)c2C#N)c(Cl)cc1CN1CCCC[C@H]1C(=O)O [drawing 205] |
| 16.4% | 1000 ng·h/mL | 254 ng/mL | – | COc1cc(/C=C/c2nccc(-c3ccccc3)c2C#N)c(C(F)(F)F)cc1CN1CCCC[C@H]1C(=O)O [reference compound] |
| 74.1% | 8580 ng·h/mL | 1260 ng/mL | – | Cc1cc(/C=C/c2nccc(-c3ccccc3)c2C#N)c(Cl)cc1CN1CCCC[C@H]1C(=O)O [reference compound] |
| 69.7% | 7620 ng·h/mL | 1400 ng/mL | – | COc1cc(/C=C/c2cccc(-c3ccccc3)c2C#N)c(C(F)(F)F)cc1CN1CCCC[C@H]1C(=O)O [drawing 203] |
| – | – | – | 0.00068 µM | COc1cc(/C=C/c2cccc(-c3ccccc3)c2Cl)c(C(F)(F)F)cc1CN1CCCC[C@H]1C(=O)O [Compound 71, (S,E)-1-(4-(2-(2-Chloro-[1,1′-biphenyl]-3-yl)vinyl)-2-methoxy-5-trifluoromethylbenzyl)piperidine-2-carboxylic acid] |
| – | – | – | 0.00185 µM | Cc1c(/C=C/c2cc(OCc3cncc(I)c3)c(CN3CCCC[C@H]3C(=O)O)cc2C(F)(F)F)cccc1-c1ccccc1 [Compound 82, (S,E)-1-(2-((5-Iodopyridin-3-yl)methoxy)-4-(2-(2-methyl-[1,1′-biphenyl]-3-yl)vinyl)-5-(trifluoromethyl)benzyl)piperidine-2-carboxylic acid] |
| – | – | – | 0.00742 µM | COc1cc(/C=C/c2cccc(-c3ccccc3)c2C)c(C(F)(F)F)cc1CN1CCCC[C@@H]1C(=O)O [Compound 62, (R,E)-1-(2-Methoxy-4-(2-(2-methyl-[1,1′-biphenyl]-3-yl)vinyl)-5-trifluoromethylbenzyl)piperidine-2-carboxylic acid] |
| – | – | – | 0.0114 µM | Cc1cc(/C=C/c2cccc(-c3ccccc3)c2C)c(Cl)cc1CN1CCOC[C@H]1C(=O)O [Compound 22, (S,E)-4-(5-Chloro-2-methyl-4-(2-(2-methyl-[1,1′-biphenyl]-3-yl)vinyl)benzyl)morpholine-3-carboxylic acid] |
| – | – | – | 0.0068 µM | COc1cc(/C=C/c2cccc(-c3ccccc3)c2C)c(Cl)cc1CN1CCCC[C@H]1C(=O)O [Compound 58, (S,E)-1-(5-Chloro-2-methoxy-4-(2-(2-methyl-[1,1′-biphenyl]-3-yl)vinyl)benzyl)piperidine-2-carboxylic acid] |
| – | – | – | 0.281 µM | Cc1cc(OCCO)c(CN2CCCC[C@H]2C(=O)O)cc1/C=C/c1cccc(-c2ccccc2)c1C#N [Compound 41, (S,E)-1-(5-(2-(2-Cyano-[1,1′-biphenyl]-3-yl)vinyl)-2-(2-hydroxyethoxy)-4-methylbenzyl)piperidine-2-carboxylic acid] |
| – | – | – | 0.046 µM | Cc1cc(/C=C/c2cccc(-c3ccccc3)c2C#N)c(Cl)cc1CN1CCNC[C@H]1C(=O)O [Compound 13, (S,E)-1-(5-Chloro-4-(2-(2-cyano-[1,1′-biphenyl]-3-yl)vinyl)-2-methylbenzyl)piperazine-2-carboxylic acid] |
| – | – | – | 0.0065 µM | Cc1cc(/C=C/c2cccc(-c3ccccc3)c2C)c(Cl)cc1CN1CCCC[C@H]1C(=O)O [Compound 5, (S,E)-1-(5-Chloro-2-methyl-4-(2-(2-methyl-[1,1′-biphenyl]-3-yl)vinyl)benzyl)piperidine-2-carboxylic acid] |
| – | – | – | 0.0576 µM | N#Cc1c(/C=C/c2cc(CO)c(CN3CCOC[C@H]3C(=O)O)cc2C(F)(F)F)cccc1-c1ccccc1 [Compound 21, (S,E)-4-(4-(2-(2-Cyano-[1,1′-biphenyl]-3-yl)vinyl)-2-hydroxymethyl-5-trifluoromethylbenzyl)morpholine-3-carboxylic acid] |
| 72.4% | 40600 ng·h/mL | 1870 ng/mL | – | COc1cc(/C=C/c2cccc(-c3ccccc3)c2C)c(C(F)(F)F)cc1CN1CCCC[C@H]1C(=O)O [drawing 201] |
| – | – | – | 0.0107 µM | Cc1c(/C=C/c2ccc(CN3CCCC[C@H]3C(=O)O)cc2C(F)(F)F)cccc1-c1ccccc1 [Compound 4, (S,E)-1-(4-(2-(2-Methyl-[1,1′-biphenyl]-3-yl)vinyl)-3-trifluoromethylbenzyl)piperidine-2-carboxylic acid] |
| – | – | – | 0.00399 µM | COc1cc(/C=C/c2cccc(-c3ccccc3)c2CF)c(C(F)(F)F)cc1CN1CCCC[C@H]1C(=O)O [Compound 73, (S,E)-1-(4-(2-(2-Fluoromethyl-[1,1′-biphenyl]-3-yl)vinyl)-2-methoxy-5-trifluoromethylbenzyl)piperidine-2-carboxylic acid] |
| 23.6% | 2300 ng·h/mL | 673 ng/mL | – | COc1cc(/C=C/c2nccc(-c3ccccc3)c2C)c(C(F)(F)F)cc1CN1CCCC[C@H]1C(=O)O [reference compound] |
| – | – | – | 1.16 µM | Cc1cc(CN2CCCC[C@H]2C(=O)O)c(O)cc1/C=C/c1cccc(-c2ccccc2)c1C#N [Compound 31, (S,E)-1-(4-(2-(2-Cyano-[1,1′-biphenyl]-3-yl)vinyl)-2-hydroxy-5-methylbenzyl)piperidine-2-carboxylic acid] |
| – | – | – | 0.265 µM | COCCOc1cc(C)c(/C=C/c2cccc(-c3ccccc3)c2C#N)cc1CN1CCOC[C@H]1C(=O)O [Compound 44, (S,E)-4-(5-(2-(2-Cyano-[1,1′-biphenyl]-3-yl)vinyl)-2-(2-methoxyethoxy)-4-methylbenzyl)morpholine-3-carboxylic acid] |

| Compound | F [1] | AUC(0-inf) [1] | Cmax [1] | IC50 (PD-1/PD-L1) |
| --- | --- | --- | --- | --- |
| (S,E)-1-(2-Methoxy-4-(2-(2-methyl-d3)-[1,1′-biphenyl]-3-yl)vinyl)-5-trifluoromethylbenzyl)piperidine-2-carboxylic acid [Compound 51] | – | – | – | 0.0022 µM |
| (S,E)-2-((5-Chloro-2-(2-(2-cyano-[1,1′-biphenyl]-3-yl)vinyl)-4-(3-methylsulfonyl)propoxy)benzyl)amino)-3-hydroxy-2-methylpropionic acid [Compound 38] | – | – | – | 0.298 µM |
| Cc1cc(OCCCCC#N)c(CN2CCCC[C@H]2C(=O)O)cc1/C=C/c1cccc(-c2ccccc2)c1C#N [Compound 39, (S,E)-1-(5-(2-(2-Cyano-[1,1′-biphenyl]-3-yl)vinyl)-2-(4-cyanobutoxy)-4-methylbenzyl)piperidine-2-carboxylic acid] | – | – | – | 0.172 µM |
| Cc1c(/C=C/c2cc(OCCCCF)c(CN3CCCC[C@H]3C(=O)O)cc2C(F)(F)F)cccc1-c1ccccc1 [Compound 85, (S,E)-1-(2-(4-Fluorobutoxy)-4-(2-(2-methyl-[1,1′-biphenyl]-3-yl)vinyl)-5-(trifluoromethyl)benzyl)piperidine-2-carboxylic acid] | – | – | – | 0.00434 µM |
| Cc1cc(CN2CCNC[C@H]2C(=O)O)c(OCCCCC#N)cc1/C=C/c1cccc(-c2ccccc2)c1C#N [Compound 18, (S,E)-1-(4-(2-(2-Cyano-[1,1′-biphenyl]-3-yl)vinyl)-2-(4-cyanobutoxy)-5-methylbenzyl)piperazine-2-carboxylic acid] | – | – | – | 0.0222 µM |
| Cc1cc(OCCCCC#N)c(CN2CCOC[C@H]2C(=O)O)cc1/C=C/c1cccc(-c2ccccc2)c1C#N [Compound 40, (S,E)-4-(5-(2-(2-Cyano-[1,1′-biphenyl]-3-yl)vinyl)-2-(4-cyanobutoxy)-4-methylbenzyl)morpholine-3-carboxylic acid] | – | – | – | 1.44 µM |
